Results from US10301314B2, “Compounds and methods for the prevention and treatment of tumor metastasis and tumorigenesis” (The United States of America, as represented by the …, priority 2011, dated 2019).

Columns and labels:
[1] = tested on: PC3M cell line that stably expresses GFP-PTB to mark PNCs; test: High content assay for PNC detection (reduction of PNC prevalence); type: cell-based, human; details: Table 4, PC3M GFP-PTB cells, 16 hrs incubation; for IC50: Homo sapiens, PC-3M
Description: The quantitative output for this assay is the reduction of PNC prevalence. The PNC can be detected in living cells by the expression of a green fluorescent protein (GFP) tagged to the PNC localized protein, PTB. A PC3M cell line was used that stably expresses GFP-PTB to mark PNCs. This method eliminates the need for immunofluorescent staining.
The IN Cell Analyzer 1000 automated fluorescent imaging system (GE Healthcare, Piscataway, N.J.) was used for automated image acquisition. […] The instrument acquired images of each well in a 1536-well plate with a laser-based autofocus system. To score PNC prevalence in a high-content throughput, the Multi-Target Analysis (MTA) algorithm (GE Healthcare, Investigator v3.5) to identify individual cells and granules (PNCs) within these cells was used. The nucleus was segmented via a region growing method (50 μm^2 minimum area) with light shading and noise removal to allow “touching” nuclei to be separated. Granules in the nucleus (PNCs) were segmented using a multiscale top hat method, which measures granules of 1 to 2 μm in size and used a smart masking method to identify the boundaries of each segmented granule. The algorithm was optimized and validated using positive and negative controls (50 μM camptothecin and DMSO, respectively). In particular, the MTA algorithm allows for the identification of multiple subcellular compartments and organelles (or granules) within those compartments. In this instance, the algorithm's capability to identify objects within the same color channel that only differ in size or fluorescent intensity was utilized. Also, the algorithm allows for building complex hierarchical classification systems, using output measures within the algorithm to filter and define subpopulations. For this particular assay, PNC-positive cells were scored when 1 to 3 PNC granules were detected per nucleus. Cells that contained 0 granules were scored as PNC negative, and cells with >3 granules were assumed to be false positives (very few cells have more than 3 PNCs in one focus plane), and were also scored as PNC negative.

[2] = tested on: PC3M reporter cell line stably expressing the PTB-GFP; test: ATP quantitation assay (ATPLite); type: cell-based, human; details: Table 4, PC3M cells, 24 hrs incubation; for IC50: Homo sapiens, PC-3M
Protocol: This follow-up assay was conducted to measure the effect of compounds on cell health by measuring ATP levels (ATPLite™). ATPLite™ is an ATP monitoring system based on firefly (Photinus pyralis) luciferase. The level of ATP in a metabolically active cell is a general marker for its viability. ATP levels are often reduced during necrosis or apoptosis. In this assay, the luciferase enzyme catalyzes the conversion of the added substrate D-luciferin to oxyluciferin and light with ATP. Thus, the emitted light is proportional to the ATP concentration. For this assay, the highly metastatic PC3M reporter cell line stably expressing the PTB-GFP was provided by Professor Sui Huang of Northwestern University. The media and cell culture reagents were purchased from Invitrogen (Carlsbad, Calif.), ATPLite™ came from PerkinElmer.

Row | SMILES | IC50 [1] | IC50 [2] | ATP IC50(μM) [2] | PNC IC50(μM) [1]
1 | N=c1c2c(-c3ccccc3)c(-c3ccccc3)n(CCc3ccccc3)c2ncn1CC1CCOCC1 [Compound 90] | 5.9 µM | 76.4 µM | – | –
2 | N=c1c2c(-c3ccccc3)c(-c3ccccc3)n(Cc3ccc(OC(F)(F)F)cc3)c2ncn1CC1CCOCC1 [Compound 91] | 5.9 µM | 30.4 µM | – | –
3 | COc1ccc(-c2c(-c3ccc(OC)cc3)n(Cc3ccccc3)c3ncn([C@H]4CC[C@H](OC)CC4)c(=N)c23)cc1 [Compound 93] | 7.43 µM | 60.7 µM | – | –
4 | COc1ccc(-c2c(-c3ccc(OC)cc3)n(Cc3ccccc3)c3ncn([C@H]4CC[C@H](O)CC4)c(=N)c23)cc1 [Compound 94] | 9.35 µM | 24.1 µM | – | –
5 | N=c1c2c(-c3ccccc3)c(-c3ccccc3)n(CC3CCCCC3)c2ncn1CC1CCOCC1 [Compound 95] | 11.8 µM | 24.1 µM | – | –
6 | N=c1c2c(-c3ccccc3)c(-c3ccccc3)n(Cc3ccccc3)c2ncn1CCCN1CCN(c2ccccc2)CC1 [Compound 96] | 11.8 µM | 30.4 µM | – | –
7 | COc1ccc(Cn2c(-c3ccccc3)c(-c3ccccc3)c3c(=N)n(N4CCOCC4)cnc32)cc1 [Compound 98] | 14.8 µM | 121 µM | – | –
8 | N=c1c2c(-c3ccccc3)cn(Cc3ccccc3)c2ncn1C(CO)(CO)CO [Compound 99] | 14.8 µM | – | inactive | –
9 | COc1ccc(-c2c(-c3ccc(OC)cc3)n(Cc3ccccc3)c3ncn(C4CCCC[C@H]4O)c(=N)c23)cc1 (stereo partly shown) [Compound 100] | 14.8 µM | 48.2 µM | – | –
10 | N=c1c2c(-c3ccccc3)c(-c3ccccc3)n(CC3CCCCC3)c2ncn1C[C@H]1CCCC[C@@H]1O [Compound 101] | 14.8 µM | 24.1 µM | – | –
11 | N=c1c2c(-c3ccccc3)c(-c3ccccc3)n(Cc3ccco3)c2ncn1Cc1ccccc1 [Compound 102] | 15.8 µM | 25.7 µM | – | –
12 | COc1ccc(-c2c(-c3ccc(OC)cc3)n(Cc3ccccc3)c3ncn(CCO)c(=N)c23)cc1 [Compound 103] | 18.7 µM | 24.1 µM | – | –
13 | COc1ccc(-c2c(-c3ccc(OC)cc3)n(Cc3ccccc3)c3ncn(C4CCOCC4)c(=N)c23)cc1 [Compound 104] | 23.5 µM | 30.4 µM | – | –
14 | N=c1c2c(-c3ccccc3)c(-c3ccccc3)n(Cc3ccc(S(N)(=O)=O)cc3)c2ncn1CCCO [Compound 105] | 23.5 µM | 304 µM | – | –
15 | N=c1c2c(-c3ccccc3)c(-c3ccccc3)n(CC3CCCCC3)c2ncn1CCCO [Compound 106] | 23.5 µM | 30.4 µM | – | –
16 | N=c1c2c(-c3ccccc3)c(-c3ccccc3)n(Cc3ccco3)c2ncn1CCCN1CCOCC1 [Compound 107] | 25 µM | 32.4 µM | – | –
17 | N=c1c2c(-c3ccccc3)c(-c3ccccc3)n(Cc3ccccc3)c2ncn1[C@H](CO)Cc1ccccc1 [Compound 108] | 29.6 µM | 38.3 µM | – | –
18 | N=c1c2c(-c3ccccc3)cn(Cc3ccccc3)c2ncn1CCCCCO [Compound 109] | 46.9 µM | 96.1 µM | – | –
19 | N=c1c2c(-c3ccccc3)cn(Cc3ccc(Br)cc3)c2ncn1CCCN1CCN(c2ccccc2)CC1 [Compound 110] | 46.9 µM | 30.4 µM | – | –
20 | N=c1c2c(-c3ccccc3)cn(Cc3ccccc3)c2ncn1[C@H](CO)Cc1ccccc1 [Compound 111] | 93.5 µM | 121 µM | – | –
21 | COc1ccc(Cn2c(-c3ccccc3)c(-c3ccccc3)c3c(=N)n([C@H](C)[C@@H](O)c4ccccc4)cnc32)cc1 [Compound 112] | – | 60.7 µM | – | inactive
22 | COc1ccc(-c2c(-c3ccc(OC)cc3)n(Cc3ccccc3)c3ncn(C4CCCC[C@H]4CO)c(=N)c23)cc1 (stereo partly shown) [Compound 113] | – | 30.4 µM | – | inactive

Row | SMILES | IC50 [1] | IC50 [2] | ATP IC50(μM) [2] | PNC IC50(μM) [1]
23 | COC(=O)C[C@H](C(=O)OC)n1cnc2c(c(-c3ccccc3)cn2Cc2ccc(Br)cc2)c1=N [Compound 114] | – | – | inactive | inactive
24 | COCCn1cnc2c(c(-c3ccccc3)cn2Cc2ccccc2)c1=N [Compound 115] | – | 121 µM | – | inactive
25 | CC[Si](CC)(CC)OCCCn1cnc2c(c(-c3ccccc3)cn2Cc2ccc(Br)cc2)c1=N [Compound 116] | – | – | inactive | inactive
26 | N=c1c2c(-c3ccccc3)cn(Cc3ccccc3)c2ncn1[C@@H]1CCCC[C@H]1N [Compound 117] | – | 96.1 µM | – | inactive
27 | N=c1c2c(-c3ccccc3)cn(Cc3ccccc3)c2ncn1CCCO [Compound 118] | – | 121 µM | – | inactive
28 | C[C@H]([C@@H](O)c1ccccc1)n1cnc2c(c(-c3ccccc3)cn2Cc2ccccc2)c1=N [Compound 119] | – | 121 µM | – | inactive
29 | N=c1c2c(-c3ccccc3)cn(Cc3ccccc3)c2ncn1CCCCO [Compound 120] | – | 241 µM | – | inactive
30 | COC(=O)c1ccc(Cn2cnc3c(c(-c4ccccc4)cn3Cc3ccccc3)c2=N)cc1 [Compound 121] | – | 121 µM | – | inactive
31 | N=c1c2c(-c3ccccc3)cn(Cc3ccccc3)c2ncn1C1CCOCC1 [Compound 122] | – | – | inactive | inactive
32 | COc1ccc(-c2c(-c3ccc(OC)cc3)n(Cc3ccccc3)c3ncn(CC4CCOCC4)c(=N)c23)cc1 [Compound 123] | – | 24.1 µM | – | inactive
33 | C#CCn1cnc2c(c(-c3ccccc3)cn2Cc2ccccc2)c1=N [Compound 124] | – | – | inactive | inactive
34 | N=c1c2c(-c3ccccc3)cn(Cc3ccccc3)c2ncn1CCCN1CCN(c2ccccc2)CC1 [Compound 125] | – | 30.4 µM | – | inactive
35 | N=c1c2c(-c3ccccc3)c(-c3ccccc3)n(Cc3ccccc3)c2ncn1CC1COC1 [Compound 126] | – | 96.1 µM | – | inactive
36 | N=c1c2c(-c3ccccc3)cn(Cc3ccccc3)c2ncn1CC1CCCO1 (stereo not shown) [Compound 127] | – | 96.1 µM | – | inactive
37 | COC(=O)C[C@@H](C(=O)OC)n1cnc2c(c(-c3ccccc3)cn2Cc2ccccc2)c1=N [Compound 128] | – | – | inactive | inactive
38 | COc1ccc(-c2c(-c3ccc(OC)cc3)n(Cc3ccccc3)c3ncn(CC4COC4)c(=N)c23)cc1 [Compound 129] | – | – | inactive | inactive
39 | COc1ccc(CCn2cnc3c(c(-c4ccccc4)cn3Cc3ccccc3)c2=N)cc1OC [Compound 130] | – | 24.1 µM | – | inactive
40 | N=c1c2c(-c3ccccc3)cn(Cc3ccccc3)c2ncn1CCNCCO [Compound 131] | – | 121 µM | – | inactive
41 | COc1ccc(-c2c(-c3ccc(OC)cc3)n(Cc3ccccc3)c3ncn([C@H]4CC[C@@H](O)CC4)c(=N)c23)cc1 [Compound 132] | – | – | inactive | inactive
42 | N=c1c2c(-c3ccccc3)c(-c3ccccc3)n(CC3CC3)c2ncn1CC1CCOCC1 [Compound 134] | – | 60.7 µM | – | inactive
43 | COc1ccc(-c2c(-c3ccc(OC)cc3)n(Cc3ccccc3)c3ncn(CCCO)c(=N)c23)cc1 [Compound 135] | – | 30.4 µM | – | inactive
44 | N=c1c2c(-c3ccccc3)cn(Cc3ccccc3)c2ncn1CCN [Compound 136] | – | – | inactive | inactive
